{"source": "patent US5877185A", "about": "“Synergistic compositions useful as anti-tumor agents” (priority 1995, dated 1999)", "key": {"MT-2 cells": {"tested_on": "MT-2 cells", "test": "effectiveness on human T-lymphoblastoid leukemia cells, MT-2", "type": "cell-based", "method": "IV. Effectiveness of 4-(halogen)-3-nitro-benzamide compounds as tested with human T-lymphoblastoid leukemia cell lines in culture.\nCells (MT-2 cells, or, in case of 3-fluoro-4-nitro-benzamide, CEM-4 cells) were seeded at a density of 0.1×10^5 /ml; the drugs were added at the time of seeding. The cultures were incubated at 37° C. in a 5% CO2 atmosphere and the cells numbers were monitored by hemacytometer counting in 24 hr intervals."}, "Molt-4": {"tested_on": "Molt-4", "test": "cytotoxicity of INO2 BA with and without BSO, Molt-4", "type": "cell-based", "details": "Homo sapiens, INO2 BA alone, 48 hours", "method": "(§1) The concentration of BSO was 1 mM for all cell lines except HT 144, where the concentration was 0.25 mM. Cells were seeded in the recommended growth medium at a density of 1.5×10^4 cell/cm^2 into 2 cm^2 wells. Drugs were added simultaneously 4 hours after seeding, and incubation was continued for 48 hours at 37° C. in a 5% CO2 atmosphere. For assessment of drug effects cells were detached by trypsinization and counted in a hemacytometer.\n(§2) Cell lines Nos. 1-4 were obtained from Dr. C. Benz, University of California, San Francisco. MDA 468 and MCF-7 human mammary cancer lines, MCF-7-B-ADR drug-resistant mammary cancer line, Du 145 drug-resistant human prostate cancer line, HT 144 human melanoma cell line, Hep-G2 human hepatocellular carcinoma line, and PC-12 rat pheochromocytoma line were obtained from the University of California Cell Culture Facility."}, "Hep-G2": {"tested_on": "Hep-G2", "test": "cytotoxicity of INO2 BA with and without BSO, Hep-G2", "type": "cell-based", "details": "Homo sapiens", "method": "as §1, §2"}, "[1]": {"tested_on": "SIVmac239 or virus isolates in CEM ×174 cells", "test": "SIV replication in CEM ×174 cells, SIV p27 core antigen assay", "type": "cell-based", "source_text": "Infected cell cultures described in FIG. 4 were used for determination of supernatant virus titers by SIV p27 core antigen assay as described in Example XIV. The ordinate represents p27 ELISA performed on day 10 of the assay and the abscissa represents the concentration of INO2 BA alone (rear rows in panels A, B and C) and in combination with BSO (front rows in panels A, B and C).\nCEM ×174 cells (3×10^5 /ml) were infected with 3.75 TCID50 /ml (50% tissue culture infectious dosage per ml of cell suspension) stock solution of SIVmac239 or virus isolates from SIVmac239-infected rhesus macaques on day 0. Uniform infection of cells was ensured by the infection of one cell population only per virus preparation. Three days post-infection, the cells were distributed (500 μl/well) into individual wells of a 24-well plate. Fresh medium containing INO2 BA concentrations ranging from 0 to 300 μM and/or BSO concentrations ranging from 0 to 0.25 mM were added to establish final 1-ml reaction volumes, and the cultures were further incubated for 4 days. The wells were then replenished with fresh CEM ×174 cells (3×10^5 /ml), INO2 BA and/or BSO were re-added at the same concentrations as in the original incubates, and incubation was continued for an additional 3 days. This procedure intends to mimic conditions of in vivo chemotherapy. Cell viability and virus titers in the supernatant were determined on day 10 (3 days after the addition of new cells) by the tetrazolium (MTT) method of Hansen et al., J. Immunol. Methods 119:208-210 (1982) and by the SIV p27 and reverse transcriptase (RT) assays described by Chuang et al., FEBS Lett. 326:140-144 (1993), respectively.\nSIVmac p27 core antigen levels were determined by an enzyme immunoassay provided by Coulter Corp. (Hialeah, Fla.). The assay was performed according to the manufacturer's specifications."}, "[2]": {"test": "non-toxicity in hamsters, intraperitoneal", "type": "in vivo"}, "[3]": {"tested_on": "SIV 22803 (AZT-resistant)", "test": "AZT-resistant SIV propagation (syncytia formation), SIV 22803", "type": "cell-based", "details": "for Syncytia: BSO 0", "method": "CEM × 174 (3 × 10^5 /ml) were infected with equal doses o\nSIVmac239 or virus isolates from SIVmac239infected rhesus macaques (MMU\n23686, 22803). Three days postinfection, INO2 BA concentrations\nranging from 0 to 300 μM with or without BSO were added, and incubated\nfor an additional 3 days. Cell cultures were then examined for syncytia\nformation. The number of syncytia in cell cultures was counted in\narbitration fields under 40× magnification and scored as follows: […]"}, "MCF-7": {"tested_on": "MCF-7", "test": "cytotoxicity of INO2 BA with and without BSO, MCF-7", "type": "cell-based", "details": "Homo sapiens", "method": "as §1, §2"}, "neutrophil granulocytes": {"tested_on": "neutrophil granulocytes", "details": "tumoricidal concentrations; cited from earlier work"}, "[4]": {"tested_on": "AZT-resistant rhesus macaque (MMU-23740)-derived SIV", "details": "cited from earlier work"}, "HIV-1 (MN strain)": {"tested_on": "HIV-1 (MN strain)", "test": "infectivity of NOBA-treated HIV-1 virions", "type": "cell-based", "details": "3000 or 6000 μM NOBA, 37° C."}, "[5]": {"tested_on": "L-1210 Murine Leukemia Cells", "test": "effect of nitroso- and nitro-compounds in L-1210 murine leukemia cells (suspension)", "type": "cell-based", "details": "drug exposure 18 hours", "method": "II. I50 and LD100 Values for Nitroso- and Nitro-Compounds in (A) Mammary Cancer Cells (monolayer cultures) and in (B) L-1210 Murine Leukemia Cells (suspension culture).\nCells were seeded at 5×10^4 to 2×10^5 /ml; drugs were added at the time of seeding; drug exposure was for 18 hours."}, "HIV-1 NC zinc fingers": {"tested_on": "HIV-1 NC zinc fingers", "details": "isolated HIV-1 NC zinc fingers and intact HIV-1 virions; cited from earlier work"}}}
{"compound": "NC(=O)c1ccc(I)c([N+](=O)[O-])c1", "note": "[INO2 BA, 4-iodo-3-nitrobenzamide]", "values": [{"measurement": "IC50", "setting": "MT-2 cells; Homo sapiens, MT2, concentration decreasing cell viability to 50% of control, 48 h incubation, read-out: I50", "value": 70, "unit": "µM"}, {"measurement": "LD100", "setting": "MT-2 cells; zero viability after 48 hours of incubation", "value": 190}, {"measurement": "IC50", "setting": "Molt-4; read-out: I50", "value": 70, "unit": "µM"}, {"measurement": "IC100", "setting": "Molt-4; read-out: LD100", "value": 196, "unit": "µM"}, {"measurement": "IC100", "setting": "Hep-G2; HepG2, 48 h, read-out: LD100", "value": 200, "unit": "µM"}, {"measurement": "IC50", "setting": "Hep-G2; HepG2, INO2 BA alone, 48 hours, read-out: I50", "value": 120, "unit": "µM"}, {"measurement": "SIV p27 formation", "setting": "[1]; INO2 BA alone, FIG. 5A-C", "value": "almost complete inhibition"}, {"measurement": "effect of GSH depletion by BSO on inhibitory effect on SIV replication", "setting": "[1]; with BSO, CEM ×174 cells", "value": "synergistically enhances"}, {"measurement": "toxic effects", "setting": "[2]; 200 mg/kg intraperitoneally daily for 12 days", "value": "no toxic effects"}, {"measurement": "toxic effects", "setting": "[2]; 200 mg/kg intraperitoneally daily for 14 days, twelve hamsters", "value": "without toxic effects"}, {"measurement": "Syncytia", "setting": "[3]; INO2 BA 25 μM", "value": "++ (10-20)"}, {"measurement": "Syncytia", "setting": "[3]; INO2 BA 50 μM", "value": "++ (10-20)"}, {"measurement": "Syncytia", "setting": "[3]; INO2 BA 100 μM", "value": "++ (10-20)"}, {"measurement": "Syncytia", "setting": "[3]; INO2 BA 200 μM", "value": "- (0)"}, {"measurement": "Syncytia", "setting": "[3]; INO2 BA 300 μM", "value": "- (0)"}, {"measurement": "IC100", "setting": "[3]; Simian immunodeficiency virus, 72 h, read-out: INO2 BA concentration abrogating cell fusion (syncytia)", "value": "> 100", "unit": "µM"}, {"measurement": "syncytia-blocking concentration of INO2 BA", "setting": "[3]; with 0.05 mM BSO", "value": 25, "unit": "µM"}, {"measurement": "IC100", "setting": "MCF-7; MCF7, 48 h, read-out: LD100", "value": 200, "unit": "µM"}, {"measurement": "IC50", "setting": "MCF-7; MCF7, INO2 BA alone, 48 hours, read-out: I50", "value": 100, "unit": "µM"}]}
{"compound": "NC(=O)c1cccc(N=O)c1", "note": "[NOBA, 3-nitrosobenzamide]", "values": [{"measurement": "effect on superoxide formation by neutrophil granulocytes", "setting": "neutrophil granulocytes", "value": "relatively harmless"}, {"measurement": "inhibition of infectious cycle", "setting": "[4]", "value": "equally inhibited"}, {"measurement": "infectivity", "setting": "HIV-1 (MN strain)", "value": "complete loss of infectivity"}, {"measurement": "I50", "setting": "[5]", "value": 7.5, "unit": "nanomoles/10^5 cells"}, {"measurement": "LD100", "setting": "[5]", "value": 15, "unit": "nanomoles/10^5 cells"}, {"measurement": "zinc ejection", "setting": "HIV-1 NC zinc fingers", "value": "eject zinc"}]}
